From patent US20220411448A1, “CHROMENE-4-ONE DERIVATIVES AS BRAIN-DERIVED NEUROTROPHIC FACTOR (BDNF) MIMETICS” (FLORATEK PHARMA AG, priority 2019, published 2022) come the findings set out here.

In data set [1] the test system is TrkB receptor. Nature of the data set: Activation of TrkB receptor: phosphorylation in cortical neurons (WES capillary immunoassay). It is filed as cell-based, mouse. As to the method: On the day of preparation (DIV1) cortical neurons were seeded on poly-D-lysine pre-coated 6-well plates at a density of 1.25*10^6 cells per well and cultured at 37° C.; 95% humidity and 5% CO2 until […] with a half medium exchange on DIV4-6. On DIV10 cells are treated with test item TI (SND118) and control Rh (7,8DHF) at different concentrations for 15 min. The experiment was carried out with n=6 technical replicates per condition, vehicle treated cells served as control. Cells were lysed in 150 μL cold RIPA buffer [50 mM Tris pH 7.4, 1% Nonidet P40, 0.25% Na-deoxy-cholate, 150 mM NaCl, 1 mM EDTA supplemented with freshly added 1 μM NaF, 0.2 mM Na-ortho-vanadate, 80 μM Glycerophosphate, protease (Calbiochem) and phosphatase (Sigma) inhibitor cocktail.
Phosphorylation of the TrkB receptor was detected using the following rabbit anti-Tyr specific antibodies: anti-TrkB Y515, Y706/707 and Y816 and compared with total TrkB detected with anti-TrkB antibody (Abcam). Antibody dilutions and protein amounts were optimized for signal specificity.
Automated separation and immunostaining of total and phospho TrkB was carried out using a capillary-based immunoassay, WES™ (Proteinsimple®). Samples were applied to a 25 capillary cartridge with a 2 to 440 kDa matrix, at an optimized total protein concentration. Sample loading, separation, immunoprobing, washing, detection and quantitative data analysis were performed automatically by WES™ Western system (Compass software V 4.0.0). The areas under the curve were used for the analysis and the phosphorylated versus vehicle or total TrkB signal ratio was calculated and used for statistics.

Data set [2] has as its system TNF-α. Briefly: LPS stimulation of BV-2 microglia: TNF-α. Format: cell-based, murine. To be noted: between 0.3 and 3 μM, BV2, LPS 500 ng/ml, 24 h. How it is done: The murine microglial cell line BV-2 was grown in DMEM medium supplemented with 10% FCS, 1% penicillin/streptomycin and 2 mM L-glutamine (culture medium). For LPS stimulation assay, 10000 BV-2 cells per well (uncoated 96 well plates) were plated and after 24 hours, medium was changed to serum-free treatment medium (DMEM, 2 mM L-glutamine) and cells were maintained in treatment medium for the remaining culture period. 1 h after changing cells to treatment medium, the test items were added 1 hour before LPS stimulation (Sigma-Aldrich; L6529; 1 mg/ml stock in ddH2O, final concentration in well: 500 ng/ml (dilutions in medium)). Cells treated with vehicle, cells treated with LPS alone, as well as cells treated with LPS plus reference dexamethasone at 10 μM item served as controls.
Following 24 h of stimulation, cell supernatants were collected for the NO, and cytokine measurements. Levels of 2 cytokines (TNF-α, IL-6) were measured by an immunosorbent assay (U-PLEX Custom […] Cytokine, Mesoscale Discovery) according to the instructions of the manufacturer and evaluated in comparison to calibration curves provided in the kit. […] Absorbance was measured at 570 nm. Nitrosative stress was evaluated in the study samples in comparison to a NaNO2 standard curve. […]

The subject of data set [3] is human hepatocytes from pooled donor lot. Briefly: Hepatic toxicity: cell viability by ATP content. Format: cell-based. To be noted: 1 to 100 μM, 24 h exposure. As to the method: Cryopreserved human hepatocytes from pooled donor lot (Bioreclamation IVT) were seeded on collagen I coated 96-well plates (Corning Biocoat) at 0.55×10^5 cells per well in 120 μl InVitroGRO™ CP medium (BioIVT), including additives Torpedo Antibiotic mix (BioIVT). After cell attachment (4-6 hours post seeding) cell culture medium was replaced with fresh medium and incubated for 72 hours at 37° C. under 5% CO2. Thereafter, hepatocytes were exposed to test or control compounds in 100 μl of InVitroGRO™ HI medium, including additives Torpedo Antibiotic mix at concentrations presented below. Cytotoxicity and cell viability were evaluated based on LDH release in medium and ATP content in the cells after 24 hours exposure phase.
Cytotoxicity potency of test compounds SND118, SND121, SND122 and SND123 was assayed in human hepatocytes from pooled donor lot at three concentrations; 1, 10 and 100 μM. Cytotoxicity was assayed from medium samples after 24 h exposure period with test compounds by measuring membrane integrity (LDH leakage), coupled to fluorescent signal. In parallel, cell viability was assayed by the means of ATP content, indicating the metabolically competent cell activity. LDH and ATP assay kits were sourced from Promega. ATP content was measured based on luciferase catalysed reaction generating stable bioluminescent signal. […]

A short description of data set [4]: Metabolic stability in mouse intestine microsomes. It is filed as in vitro ADME. The following applies: male, CD1, mouse, pooled intestine microsomes, pH 7.4, intestinal microsomes, 0.5 mg/ml protein, read-out: T1/2 IM mouse. How it is done: Sample type: pooled liver or intestine microsomes; Species: CD1-mouse (male), human (mixed gender) Time points: 0, 10, 20, 40, 60 min cofactors, and negative control;
Protein content: 0.5 mg/ml: Replicates: 2 with cofactors, 1 without cofactors; Cofactors: NADPH (1 mM)+UDPGA (1 mM)+15 μg/ml alamethicin Buffer: 0.1 M phosphate buffer pH 7.4, 2 mM MgCl2; Spiking solvent: 50% DMSO ( 1/100 to incubation); Quenching solvent: 2-fold volume of 75% ACN, Control: midazolam disappearance rate
The study compounds were incubated with liver or intestine microsomes as specified above. The collected samples were stored at −20 C until thawed at room temperature, centrifuged and analyzed as presented below.
The samples were analysed by UPLC/HR-MS (with data dependent MS/MS mode) to monitor substrate depletion (and later optionally metabolite formation). The analytical method was optimised by using the parent compound for optimum chromatographic properties (peak shape and retention) and mass spectrometric ionisation. Disappearance rate of the study compound was estimated based on relative LC/MS peak areas (o min marked as 100%), and was used to calculate in vitro half-life and clearance (and in vivo extrapolation of hepatic clearance).

Turning to `O=c1cc(-c2ccc(CCCC[P+](c3ccccc3)(c3ccccc3)c3ccccc3)cc2)oc2c(O)c(O)ccc12` [SND118, 4-[4-(7,8-dihydroxy-4-oxo-chromen-2-yl)phenyl]butyltriphenylphosphonium bromide], the “phospho Tyr706/707 signal normalized to the TrkB” value in data set [1] is reported as “significant increase”. The “phosphorylation of the TrkB receptor at sites Tyr 515 and Tyr 816” value in data set [1] (1 and 2 μM) is on record as “induced statistically significant phosphorylation”. For the same molecule, in data set [1] (SND118 2 μM), the “phosphorylation of TrkB at Tyr residue 706/707 versus the vehicle” value is reported as “increased slightly”. The “level of TNF-α in response to LPS stimulation” value in data set [2] is given as “significantly decreased”. For the same molecule, the “ATP content (cell viability)” value in data set [3] was 72-103%. Further, the half-life at 1 μM in data set [4] stood at 27.6 min.
